In PubChem BioAssay AID1963858 (Molecular Pharmacology Branch, DTP, NCI, 2024):
Several values for one entry are separate records, joined by “and”; a condition that tells them apart may be missing. Equal entries are not always repeated.

Test system: HOP-62 multicell spheroids with HUVEC/MSC, viability
Assay: Anticancer human tumor HOP-62 cell line growth inhibition [KRAS2];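 also: viability read after a week of compound exposure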;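 as to viability, T/C: 100% = DMSO vehicle-treated spheroids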
Settings: for viability, T/C: stronger effect = lower value
Text: Multicellular complex tumor spheroid response to RAS pathway inhibitors in combination with a targeted agents in patient-derived cell lines with oncogenic KRAS variants from multiple cancer types
A high-throughput screen of multi-cell type tumor spheroids was designed to identify active combinations of targeted small molecules and KRAS pathway inhibitors. Complex spheroids include a stromal component modeled by human endothelial cells (HUVEC) and fibroblasts modeled by human mesenchymal stem cells (MSCs). The concentration ranges selected for each drug and investigational agent were based upon clinically achievable concentrations if the clinical Cmax of the agent was known.
Compounds. The drugs and investigational agents: BI-3406 (NSC825286), BAY-293 (NSC824723), batoprotafib (TNO155; NSC825523), sotorasib (AMG 510; NSC818433), MRTX1257 (NSC819558), elimusertib (BAY 1895344; NSC800525), molibresib (GSK525762; NSC774829), temuterkib (LY3214996; NSC803410), venetoclax (NSC766270), alisertib (NSC759677), olaparib (NSC753686), talazoparib (NSC767125), erdafitinib (NSC781556), ipatasertib (NSC767898), cabozantinib (NSC761068), nintedanib (NSC756659), abemaciclib (NSC768073), docetaxel (NSC628503), trametinib (NSC758246), and sapanisertib (NSC764658) were obtained from the National Cancer Institute (NCI) Developmental Therapeutics Program Chemical Repository. The FDA-approved anticancer drug set is available from the Developmental Therapeutics Program. […] The stock solutions were prepared in dimethyl sulfoxide (DMSO, Sigma-Aldrich, St. Louis, MO, cat. D2650) at 800-fold the tested concentration and stored at -70 degrees C prior to their use. All drugs and investigational agents were tested over a range starting from a high concentration at or near the clinical Cmax and decreasing in half-log increments. If the clinical Cmax for an agent had not been determined, the highest concentration tested was 10 microM.
Cell Culture. All cells were maintained in an incubator at 37 degrees C and 5% CO2 with 95% humidity. The PDC lines were cultured according to standard operating procedures established by the NCI PDMR (https://pdmr.cancer.gov/sops/default.htm). Briefly, all PDCs were thawed and cultured in Matrigel-coated flasks prepared with a working solution of 1X Ham's F-12 nutrient mix, without supplementation (Invitrogen, Waltham, MA, cat. 11765054), 100 U/mL penicillin-streptomycin (Invitrogen, cat. 15140122), and 2.5% Matrigel (Corning Inc., Corning, NY, cat. 354248) for the first three passages. All PDCs were cultured in complete DMEM/F-12 media containing advanced DMEM/F-12 (Invitrogen, cat. 12634028), 4.9% defined fetal bovine serum, heat inactivated (HyClone Laboratories Inc., Logan, UT, cat. SH30070.03HI), 389 ng/mL hydrocortisone (Sigma-Aldrich, cat. H4001), 9.7 ng/mL human EGF recombinant protein (Invitrogen, cat. PHG0313), 23.4 microg/mL adenine (Sigma-Aldrich, cat. A2786), 97.3 U/mL penicillin-streptomycin (Invitrogen, cat. 15140122), 1.9 mM L-glutamine (Invitrogen, cat. 25030081), and 9.7 microM Y-27632 dihydrochloride (Tocris Bioscience, Bristol, United Kingdom, cat. 1254). The PDCs were cultured in complete DMEM/F12 media without 9.7 microM Y-27632 dihydrochloride for at least two passages prior to the screen. The established cell line HOP-62 was cultured in RPMI 1640 medium, HEPES (Invitrogen, cat. 22400105) with 10% defined fetal bovine serum (HyClone Laboratories Inc., cat. SH30070.03) and 2 mM L-glutamine (Invitrogen, cat. 25030081). The pooled donor HUVEC were cultured in endothelial cell growth medium 2 (PromoCell, Heidelberg, Germany, cat. C-22011) and the hMSC were cultured in mesenchymal stem cell growth medium 2 (PromoCell, cat. C-28009). For all experiments, HUVEC and hMSC were used at passages </=5, while the malignant cell lines were used at passages </=15. […]

[1] = curve of first compound, second compound 0.1 µM
[2] = curve of first compound, second compound 0.316 µM
[3] = curve of first compound, second compound 1 µM
[4] = curve of first compound, second compound 3.16 µM
[5] = curve of first compound, second compound 10 µM
[6] = second compound 0.1 µM, first compound 0.0316 µM
[7] = second compound 0.1 µM, first compound 0.1 µM
[8] = second compound 0.1 µM, first compound 0.316 µM
[9] = second compound 0.1 µM, first compound 1 µM
[10] = second compound 0.1 µM, first compound 3.16 µM
[11] = second compound 0.1 µM, first compound 10 µM
[12] = second compound 0.316 µM, first compound 0.0316 µM
[13] = second compound 0.316 µM, first compound 0.1 µM
[14] = second compound 0.316 µM, first compound 0.316 µM
[15] = second compound 0.316 µM, first compound 1 µM
[16] = second compound 0.316 µM, first compound 3.16 µM
[17] = second compound 0.316 µM, first compound 10 µM
[18] = second compound 1 µM, first compound 0.0316 µM
[19] = second compound 1 µM, first compound 0.1 µM
[20] = second compound 1 µM, first compound 0.316 µM
[21] = second compound 1 µM, first compound 1 µM
[22] = second compound 1 µM, first compound 3.16 µM
[23] = second compound 1 µM, first compound 10 µM
[24] = second compound 3.16 µM, first compound 0.0316 µM
[25] = second compound 3.16 µM, first compound 0.1 µM
[26] = second compound 3.16 µM, first compound 0.316 µM
[27] = second compound 3.16 µM, first compound 1 µM
[28] = second compound 3.16 µM, first compound 3.16 µM
[29] = second compound 3.16 µM, first compound 10 µM
[30] = second compound 10 µM, first compound 0.0316 µM
[31] = second compound 10 µM, first compound 0.1 µM
[32] = second compound 10 µM, first compound 0.316 µM
[33] = second compound 10 µM, first compound 1 µM
[34] = second compound 10 µM, first compound 3.16 µM
[35] = second compound 10 µM, first compound 10 µM

| Structure (SMILES) | IC50 [1] [nM] | IC50 [2] [nM] | IC50 [3] [nM] | IC50 [4] [nM] | IC50 [5] [nM] | viability, T/C [6] [%] | viability, T/C [7] [%] | viability, T/C [8] [%] | viability, T/C [9] [%] | viability, T/C [10] [%] | viability, T/C [12] [%] | viability, T/C [13] [%] | viability, T/C [14] [%] | viability, T/C [15] [%] | viability, T/C [16] [%] | viability, T/C [18] [%] | viability, T/C [19] [%] | viability, T/C [20] [%] | viability, T/C [21] [%] | viability, T/C [22] [%] | further results |
| --- | --- | --- | --- | --- | --- | --- | --- | --- | --- | --- | --- | --- | --- | --- | --- | --- | --- | --- | --- | --- | --- |
| CC(C)NCC(C(=O)N1CCN(c2ncnc3c2C(C)CC3O)CC1)c1ccc(Cl)cc1 (stereo not given) + CC1OCC2(CCN(c3cnc(Sc4ccnc(N)c4Cl)c(N)n3)CC2)C1N | 389 | 235 | 52.1 | < 31.6 | < 31.6 | 88.7 | 81.9 | 53.5 | 27.6 | 11.3 | 65.7 | 66.2 | 43.4 | 21.7 | 8.04 | 55.9 | 42.3 | 20.5 | 7.92 | 6.64 | viability, T/C [11]: 7.62%; viability, T/C [17]: 5.81%; viability, T/C [23]: 4.61%; viability, T/C [24]: 37.6%; viability, T/C [25]: 27.2%; viability, T/C [26]: 13%; viability, T/C [27]: 7.62%; viability, T/C [28]: 4.7%; viability, T/C [29]: 3.86%; viability, T/C [30]: 25.7%; viability, T/C [31]: 20.4%; viability, T/C [32]: 14.5%; viability, T/C [33]: 7.49%; viability, T/C [34]: 4.67%; viability, T/C [35]: 3.48% |
| CC(=O)OC12COC1CC(O)C1(C)C(=O)C(O)C3=C(C)C(OC(=O)C(O)C(NC(=O)OC(C)(C)C)c4ccccc4)CC(O)(C(OC(=O)c4ccccc4)C21)C3(C)C (stereo not given) + CC1OCC2(CCN(c3cnc(Sc4ccnc(N)c4Cl)c(N)n3)CC2)C1N | < 10 | < 10 | < 10 | < 10 | < 10 | 34.9 | 35.6 | 37.6 | 38.2 | 40.1 | 33 | 31.2 | 29.8 | 33.1 | 36.4 | 33.8 | 32.7 | 34.5 | 34.8 | 45 | viability, T/C (second compound 0.1 µM, first compound 0.01 µM): 35.9%; viability, T/C (second compound 0.316 µM, first compound 0.01 µM): 31.2%; viability, T/C (second compound 1 µM, first compound 0.01 µM): 37.5%; viability, T/C (second compound 3.16 µM, first compound 0.01 µM): 25.5%; viability, T/C [24]: 22.3%; viability, T/C [25]: 39.3%; viability, T/C [26]: 25.5%; viability, T/C [27]: 25.6%; viability, T/C [28]: 26.9%; viability, T/C (second compound 10 µM, first compound 0.01 µM): 23%; viability, T/C [30]: 18.8%; viability, T/C [31]: 35.4%; viability, T/C [32]: 23.5%; viability, T/C [33]: 25.7%; viability, T/C [34]: 29.4% |
| O=C(c1cc(Cc2n[nH]c(=O)c3ccccc23)ccc1F)N1CCN(C(=O)C2CC2)CC1 | – | – | – | – | – | – | – | – | – | – | – | – | – | – | – | – | – | – | – | – | viability, T/C (compound 0.0316 µM): 105% [middle of 5 runs]; viability, T/C (compound 0.1 µM): 102% [middle of 5 runs]; viability, T/C (compound 0.316 µM): 93.2% [middle of 5 runs]; viability, T/C (compound 10 µM): 50.4% [middle of 5 runs]; IC50 (curve of compound): 4880 nM and > 10000 nM and 4580 nM |
| O=C(c1cc(Cc2n[nH]c(=O)c3ccccc23)ccc1F)N1CCN(C(=O)C2CC2)CC1 + COc1cc2nc(C)nc(NC(C)c3cc(N)cc(C(F)(F)F)c3)c2cc1OC1CCOC1 | > 10000 | 7020 | > 10000 | 4690 | 97.4 | 99.5 | 102 | 106 | 102 | 85.1 | 90.8 | 85.6 | 83.3 | 92.3 | 67.9 | 102 | 98.2 | 93.4 | 94.6 | 85.4 | viability, T/C [11]: 52.7%; viability, T/C [17]: 42%; viability, T/C [23]: 50.5%; viability, T/C [24]: 77%; viability, T/C [25]: 61.9%; viability, T/C [26]: 64%; viability, T/C [27]: 69.3%; viability, T/C [28]: 56.3%; viability, T/C [29]: 36.1%; viability, T/C [30]: 97.5%; viability, T/C [31]: 45.3%; viability, T/C [32]: 55.5%; viability, T/C [33]: 60.9%; viability, T/C [34]: 47%; viability, T/C [35]: 35.1% |
